From patent publication US20240373891A1, “SWEETENER BLEND COMPRISING THAUMATIN AND MOGROSIDES” (NOMAD BIOSCIENCE GMBH, priority 2021, published 2024)

Experiments:
[1] = Round table evaluation of sweetness intensity (SEV) against sucrose reference samples; type: in vivo; conditions: mean of test panelists
Description: • Round table evaluations were performed with test panelists. Equal sweet 5 SEV concentrations in neutral pH water were made for Thaumatin II (purity greater than 90%), Mogroside V, and Siamenoside I. These equal sweet solutions were also mixed at 50% of Thaumatin II and 50% Mogroside V or Siamenoside I and compared to the individual components. The components of the test compositions are described in the below tables. The mixed compositions were calculated using the Beidler mixture equation for the sweeteners. The Beidler mixture equation for sweeteners is as follows: […]
The concentration of each component in the mixture in ppm is divided by SEV (c/R) and is plotted against concentration, c. The […]. The y-intercept of the linear regression multiplied by Rmaxis the half-maximal sweetness concentration, 1/K. Rmax and 1/K are the two parameters used in the Beidler equation. Mixtures were tasted in comparison to reference samples for the panelists to determine SEV values. References samples were 3%, 4%, 5%, 6%, 7%, and 8% sucrose in neutral pH water. The test samples were served in 2 ounce soufflé cups (approximately 60 ml) coded with 3-digit codes at room temperature. A two minute wait period between samples was enforced. Water and unsalted crackers was available for the panelists to clear their palates before and during testing. Results were collected for calculating approximate SEV level of each test sample. • The test products analyzed in this experiment are described below in Table 1.

[2] = Round table qualitative assessment of quality of sweetness and undesirable attributes, scale 1-10; type: in vivo; conditions: for Off taste (lower better) / Quality of sweetness (higher better): scale of 1-10, 6 panelists; for Quality of sweetness (higher better): 5% sucrose control
Description: • Round table evaluations were performed with 6 test panelists. Equal sweet 5 SEV concentrations in neutral pH water were made for Thaumatin II (purity greater than 90%), Mogroside V, and Siamenoside I. These equal sweet solutions were also mixed at 50% of Thaumatin II and 50% Mogroside V or Siamenoside I and compared to the individual components. All solutions were coded and blinded from panelists. Panelists were asked to provide a qualitative assessment on a scale of 1-10 of the quality of sweetness (10 being the highest quality of sweetness) and undesirable attributes (10 being most undesirable) of each solution using a 5% sucrose solution as a control.

[3] = summary of Example 2, compared with sucrose

| Molecule | Sweetness intensity determined, SEV ([1]; 250 ppm in neutral pH water) [SEV] | Off taste (lower better) ([2]; 250 ppm in neutral pH water) | Quality of sweetness (higher better) ([2]; 250 ppm in neutral pH water) | Sweetness quality and off taste, in words ([2]; summary of Example 2) | Sweetness onset, in words [2, 3] | Sweetness intensity determined, SEV ([1]; 7 ppm in neutral pH water) [SEV] | Off taste (lower better) ([2]; 7 ppm in neutral pH water) | Quality of sweetness (higher better) ([2]; 7 ppm in neutral pH water) | Sweet aftertaste, in words [2, 3] |
| --- | --- | --- | --- | --- | --- | --- | --- | --- | --- |
| C[C@H](CC[C@@H](O[C@@H]1O[C@H](CO[C@@H]2O[C@H](CO)[C@@H](O)[C@H](O)[C@H]2O)[C@@H](O)[C@H](O)[C@H]1O[C@@H]1O[C@H](CO)[C@@H](O)[C@H](O)[C@H]1O)C(C)(C)O)[C@H]1CC[C@@]2(C)[C@@H]3CC=C4[C@@H](CC[C@H](O[C@@H]5O[C@H](CO[C@@H]6O[C@H](CO)[C@@H](O)[C@H](O)[C@H]6O)[C@@H](O)[C@H](O)[C@H]5O)C4(C)C)[C@]3(C)[C@H](O)C[C@]12C [Mogroside V] | 5.3 | 3.3 | 7.5 | very mild off notes were detected | rapid | – | – | – | – |
| C[C@H](CC[C@@H](O[C@@H]1O[C@H](CO[C@@H]2O[C@H](CO)[C@@H](O)[C@H](O)[C@H]2O)[C@@H](O)[C@H](O)[C@H]1O[C@@H]1O[C@H](CO)[C@@H](O)[C@H](O)[C@H]1O)C(C)(C)O)[C@H]1CC[C@@]2(C)[C@@H]3CC=C4[C@@H](CC[C@H](O[C@@H]5O[C@H](CO)[C@@H](O)[C@H](O)[C@H]5O)C4(C)C)[C@]3(C)[C@H](O)C[C@]12C [Siamenoside I] | 6.0 | 2.6 | 7.8 | very mild off notes were detected | rapid | – | – | – | – |
| Thaumatin II: protein of SEQ ID NO: 2, purity greater than 90%, recombinantly expressed in plants (protein, listed as Thaumatococcus daniellii) ATFEIVNRCSYTVWAAASKGDAALDAGGRQLNSGESWTINVEPGTKGGKIWARTDCYFDDSGRGICRTGDCGGLLQCKRFGRPPTTLAEFSLNQYGKDYIDISNIKGFNVPMDFSPTTRGCRGVRCAADIVGQCPAKLKAPGGGCNDACTVFQTSEYCCTTGKCGPTEYSRFFKRLCPDAFSYVLDKPTTVTCPGSSNYRVTFCPTA | – | – | – | clean sweetness without any off taste | slightly delayed | 4.8 | 4.9 | 5.3 | lasted longer |
